Test results published in patent US20100093642A1, “NOVEL POLYPEPTIDES” (priority 2006, published 2010).
Residues, ends and D or L forms follow the SMILES beside them. No end group written: not given here.

Key:
[1] = system: Salmonella enterica serovar typhimurium (ATCC 14028); assay: Bacterial cell viability, lux luminescence and OD600, with or without LPS; format: cell-based; details: co-incubation with 2.5 μM Aeromonas salmonicida LPS
From the text: (§1) To evaluate the effect of antimicrobial peptides on the viability of bacteria in a fast and reliable manner we used the lux CDABE operon from Photorhabdus luminescens as a reporter system in gram negative test bacteria and the modified luxABCDE operon in S. aureus (Vesterlund et al. 2004). Bacterial bioluminescence is directly dependent on metabolic activity, since reduction equivalents are needed to drive light emission. Any form of interruption of bacterial cell integrity or metabolism will therefore be detected as a reduction in light emission.
(§2) For the assay we used S. aureus (RN4220), E. coli K-12 and Salmonella enterica serovar typhimurium (ATCC 14028) transformed with the respective lux-operon containing plasmids (Vesterlund et al. 2004).
(§3) For each experiment a fresh colony was picked from Luria-Bertani plates supplemented with 10 μg/ml of erythromycin in case of S. aureus and with 100 μg/ml of ampicillin in case of E. coli and S. enterica serovar Typhimurium. Each colony was suspended in 5 ml of Müller-Hinton medium with appropriate antibiotics. The culture was incubated over night at 37° C. in a shaking incubator. The next morning 0.5 ml of this culture was transferred to 30 ml fresh MH medium in an Erlenmeyer-flask supplemented with the respective antibiotic. The flask was incubated (200 rpm shaking; 37° C.) until an OD600 of 0.5-0.8 was reached. The culture was then diluted to an OD600 of about 0.02-0.03 before transfer to the 96 well opaque plates with optical bottom (Packard ViewPlate) used for the assay.
The synthesized peptides were dissolved in water and aliquots frozen at −18° C. until use. Twofold dilutions of test peptides (final concentrations ranging from 0.31 to 80 μM) were directly prepared in 96 well microtiter plates in a volume of 10 μl in water. 90 μl is of indicator bacteria in MH medium were added directly to the prepared and pre-warmed (30 minutes at 37° C.) plate before starting the measurement in a Victor multiplate reader (Perkin Elmer) at 37° C. Both OD600 and luminescence in counts per second (cps) were followed over 5 hours in measuring intervals of 5 minutes. The plates where shaken before each measurement (20 sec.; 5 mm orbital shaking; 10 sec waiting). The growth curves and light emission curves were drawn and evaluated to determine the MIC for each indicator strain. The MIC was defined as the concentration of test compound causing more than 50% reduction in bioluminescence (cps) or optical density (OD600) after 5 hours, compared to the growth control. Cecropin P1 was used as positive control. The results (table 14a-b) confirm the results obtained in example 2, showing a pronounced antibacterial effect of the longest peptide fragments. […] The partial peptides P17 HC (1-20), both bromated and unbromated, inhibit growth only in higher concentrations.
A second plate with an otherwise similar setup (as described for the luminescence assay in example 3) was prepared, but with addition of Aeromonas salmonicida LPS to the peptide dilutions before pre-warming. The LPS end concentration in each well was approximately 2.5 μM.

E. coli K-12 = assay: as above; format: cell-based, Escherichia coli; details: co-incubation with 2.5 μM Aeromonas salmonicida LPS
From the text: as §1, §2, §3
The synthesized peptides were dissolved in water and aliquots frozen at −18° C. until use. Twofold dilutions of test peptides (final concentrations ranging from 0.31 to 80 μM) were directly prepared in 96 well microtiter plates in a volume of 10 μl in water. 90 μl is of indicator bacteria in MH medium were added directly to the prepared and pre-warmed (30 minutes at 37° C.) plate before starting the measurement in a Victor multiplate reader (Perkin Elmer) at 37° C. Both OD600 and luminescence in counts per second (cps) were followed over 5 hours in measuring intervals of 5 minutes. The plates where shaken before each measurement (20 sec.; 5 mm orbital shaking; 10 sec waiting). The growth curves and light emission curves were drawn and evaluated to determine the MIC for each indicator strain. The MIC was defined as the concentration of test compound causing more than 50% reduction in bioluminescence (cps) or optical density (OD600) after 5 hours, compared to the growth control. Cecropin P1 was used as positive control. […]
A second plate with an otherwise similar setup (as described for the luminescence assay in example 3) was prepared, but with addition of Aeromonas salmonicida LPS to the peptide dilutions before pre-warming. […]

[2] = system: C. glutamicum (ATCC 13032); format: cell-based, Corynebacterium glutamicum
Summary of the method: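 Peptide fractions were incubated with actively growing bacteria in Mueller Hinton medium at a starting concentration of 3×10^4 cells per ml. Growth was monitored continuously in a Bioscreen C reader; polymyxin B served as reference.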

With `CC[C@H](C)[C@H](NC(=O)CNC(=O)[C@H](CO)NC(=O)[C@H](CCCCN)NC(=O)[C@@H](NC(=O)[C@H](C)NC(=O)[C@H](Cc1c[nH]cn1)NC(=O)[C@H](CO)NC(=O)[C@@H](NC(=O)[C@H](CCCCN)NC(=O)[C@H](Cc1c[nH]cn1)NC(=O)[C@H](Cc1ccccc1)NC(=O)[C@@H](NC(=O)[C@H](CCCCN)NC(=O)[C@H](CCCCN)NC(=O)[C@H](Cc1ccccc1)NC(=O)C(Cc1c[nH]c2ccc(Br)cc12)NC(=O)CN)[C@@H](C)O)C(C)C)C(C)C)C(=O)N[C@@H](Cc1c[nH]cn1)C(=O)N[C@@H](C)C(=O)O` (some centres unmarked) [P17 HC-Br (1-20)] (HELM PEPTIDE1{G.[O=C(C(Cc1c[nH]c2ccc(Br)cc12)N[*:1])[*:2]].F.K.K.T.F.H.K.V.S.H.A.V.K.S.G.I.H.A}$$$$V2.0; N-terminus and C-terminus assumed) the “MIC, more than 50% reduction in optical density, S. enterica, P + LPS” value ([1]; OD600, 5 hours) was 10 µM, the “MIC, more than 50% reduction in luminescence, S. enterica, P + LPS” value ([1]; luminescence (cps), 5 hours) was 10 µM and the “MIC, more than 50% reduction in optical density, E. coli, P + LPS” value (E. coli K-12; OD600, 5 hours) was 40 µM. The “MIC, more than 50% reduction in luminescence, E. coli, P + LPS” value (E. coli K-12; luminescence (cps), 5 hours) was 20 µM.
GWFKKTFHKVSHAVKSGIHA [P17 HC (1-20)] was tested, and the “Minimal inhibitory concentration, C. glutamicum” value [2] was 1.56 µM.
